Biological target: P. falciparum apicoplast DNA polymerase (Pf-apPOL) (Plasmodium falciparum, UniProt Q8ILY1)
Assay: Fluorescence-based high-throughput DNA polymerase assay (molecular beacon), primary screen and dose-response;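 for % inhibition ApPOL 90': test concentration in µM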;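 for % inhibition apPOL 180': test concentration in µM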
Format: biochemical
Procedure, shortened: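 Single-point screening used 10 µM compound with 20 nM polymerase, 20 nM hairpin substrate and 6 µM dNTPs for 90 min at 25 °C. Confirmatory titrations (2.5–80 µM) followed fluorescence at three times, and IC50 was derived from a fit including a cooperativity term n.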

[1] = 'DNA Pol'; screening value, unit not given; 90 min, 10 µM
[2] = conc 80 (unit not given); 5'; DRC-2
[3] = primary screen hit value, DNA Pol (186 hits); 90 min, 10 µM
[4] = supplemental file 2, sheet IC50 nontoxic compounds; Pf-apPOL

Sequence of P. falciparum apicoplast DNA polymerase (Pf-apPOL) (Q8ILY1 entry or part of it): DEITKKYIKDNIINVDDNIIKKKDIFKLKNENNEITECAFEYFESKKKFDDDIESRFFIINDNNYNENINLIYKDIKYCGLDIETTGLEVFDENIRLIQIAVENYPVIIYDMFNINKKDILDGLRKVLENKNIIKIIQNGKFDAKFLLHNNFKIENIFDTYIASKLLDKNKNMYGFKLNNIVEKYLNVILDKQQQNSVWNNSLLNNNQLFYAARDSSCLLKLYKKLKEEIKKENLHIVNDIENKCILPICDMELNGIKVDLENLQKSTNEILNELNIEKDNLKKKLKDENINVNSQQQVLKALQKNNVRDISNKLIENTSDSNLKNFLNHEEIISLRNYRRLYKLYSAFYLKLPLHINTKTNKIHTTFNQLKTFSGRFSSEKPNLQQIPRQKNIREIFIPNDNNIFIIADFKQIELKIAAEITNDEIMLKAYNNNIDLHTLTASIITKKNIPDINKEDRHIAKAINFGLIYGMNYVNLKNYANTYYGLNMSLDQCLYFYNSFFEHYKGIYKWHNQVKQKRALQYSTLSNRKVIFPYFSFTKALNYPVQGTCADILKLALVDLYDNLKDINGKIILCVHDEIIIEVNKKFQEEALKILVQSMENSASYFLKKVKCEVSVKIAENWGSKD

CCSc1nnc(NC(=O)Cc2csc(NC(=O)c3cnccn3)n2)s1 [Molecule 79, CCSc1nnc(s1)NC(=O)Cc1csc(n1)NC(=O)c1cnccn1]
DNA Pol [1]: 44 | % inhibition Apo pol 10' (DRC-1; 10'; concentration 2.5): -4.905% | % inhibition Apo pol 10' (DRC-1; 10'; concentration 5): -2.236% | % inhibition Apo pol 10' (DRC-1; 10'; concentration 10): 11.7558% | % inhibition Apo pol 10' (DRC-1; 10'; concentration 20): 21.8429% | % inhibition Apo pol 10' (DRC-1; 10'; concentration 40): 42.6087% | % inhibition Apo pol 10' (DRC-1; 10'; concentration 80): 77.5256% | % inhibition Apol 90' (DRC-1; 90'; concentration 2.5): -9.3965% | % inhibition Apol 90' (DRC-1; 90'; concentration 5): -9.701% | % inhibition Apol 90' (DRC-1; 90'; concentration 10): -1.729% | % inhibition Apol 90' (DRC-1; 90'; concentration 20): 6.401% | % inhibition Apol 90' (DRC-1; 90'; concentration 40): 23.3518% | % inhibition Apol 90' (DRC-1; 90'; concentration 80): 61.199% | % inhibition apPOL 180' (DRC-1; 180'; concentration 2.5): -15.2579% | % inhibition apPOL 180' (DRC-1; 180'; concentration 5): -16.9778% | % inhibition apPOL 180' (DRC-1; 180'; concentration 10): -10.4775% | % inhibition apPOL 180' (DRC-1; 180'; concentration 20): -5.476% | % inhibition apPOL 180' (DRC-1; 180'; concentration 40): 8.736% | % inhibition apPOL 180' (DRC-1; 180'; concentration 80): 42.542% | % inhibition Apo pol 5' (DRC-2, 5', concentration 2.5): 1.36% | % inhibition Apo pol 5' (DRC-2, 5', concentration 5): 13% | % inhibition Apo pol 5' (DRC-2, 5', concentration 10): 30% | % inhibition Apo pol 5' (DRC-2, 5', concentration 20): 43% | % inhibition Apo pol 5' (DRC-2, 5', concentration 40): 55% | % inhibition Apo pol 5' (DRC-2, 5', concentration 80): 62% | % inhibition Apol 40' (DRC-2, 40', concentration 2.5): -2.42% | % inhibition Apol 40' (DRC-2, 40', concentration 5): 7% | % inhibition Apol 40' (DRC-2, 40', concentration 10): 25% | % inhibition Apol 40' (DRC-2, 40', concentration 20): 40% | % inhibition Apol 40' (DRC-2, 40', concentration 40): 62% | % inhibition Apol 40' (DRC-2, 40', concentration 80): 76% | % inhibition ApPOL 90' (DRC-2, 90', concentration 2.5): -4.46% | % inhibition ApPOL 90' (DRC-2, 90', concentration 5): 5% | % inhibition ApPOL 90' (DRC-2, 90', concentration 10): 22% | % inhibition ApPOL 90' (DRC-2, 90', concentration 20): 35% | % inhibition ApPOL 90' (DRC-2, 90', concentration 40): 62% | % inhibition ApPOL 90' (DRC-2, 90', concentration 80): 79% | % inhibition apPOL 180' (DRC-2, 180', concentration 2.5): -6% | % inhibition apPOL 180' (DRC-2, 180', concentration 5): 1.68% | % inhibition apPOL 180' (DRC-2, 180', concentration 10): 14% | % inhibition apPOL 180' (DRC-2, 180', concentration 20): 26% | % inhibition apPOL 180' (DRC-2, 180', concentration 40): 59% | % inhibition apPOL 180' (DRC-2, 180', concentration 80): 81% | % inhibition Apol 40' (conc 40 (unit not given); 40'; DRC-2): 62% | % inhibition ApPOL 90' (conc 40 (unit not given); 90'; DRC-2): 62% | % inhibition Apo pol 5' [2]: 62% | DNA Pol [3]: 44

CCOC(=O)C(NCc1ccco1)(NC(=O)c1ccco1)C(F)(F)F (stereo not drawn) [KU0276119]
DNA Pol (186 hits, value of the hit list (primary screen); unit not given; 90 min, 10 µM): 69 | % inhibition Apo pol 10' (DRC-1; 10'; concentration 2.5): -0.8683% | % inhibition Apo pol 10' (DRC-1; 10'; concentration 5): 4.257% | % inhibition Apo pol 10' (DRC-1; 10'; concentration 10): 15.6994% | % inhibition Apo pol 10' (DRC-1; 10'; concentration 20): 30.4809% | % inhibition Apo pol 10' (DRC-1; 10'; concentration 40): 51.156% | % inhibition Apo pol 10' (DRC-1; 10'; concentration 80): 69.3233% | % inhibition Apol 90' (DRC-1; 90'; concentration 2.5): -1.328% | % inhibition Apol 90' (DRC-1; 90'; concentration 5): -2.247% | % inhibition Apol 90' (DRC-1; 90'; concentration 10): 3.449% | % inhibition Apol 90' (DRC-1; 90'; concentration 20): 14.6625% | % inhibition Apol 90' (DRC-1; 90'; concentration 40): 31.3437% | % inhibition Apol 90' (DRC-1; 90'; concentration 80): 52.4823% | % inhibition apPOL 180' (DRC-1; 180'; concentration 2.5): -2.149% | % inhibition apPOL 180' (DRC-1; 180'; concentration 5): -6.365% | % inhibition apPOL 180' (DRC-1; 180'; concentration 10): -5.1582% | % inhibition apPOL 180' (DRC-1; 180'; concentration 20): 2.395% | % inhibition apPOL 180' (DRC-1; 180'; concentration 40): 15.7005% | % inhibition apPOL 180' (DRC-1; 180'; concentration 80): 35.8359% | % inhibition Apo pol 5' (DRC-2, 5', concentration 2.5): 3% | % inhibition Apo pol 5' (DRC-2, 5', concentration 5): 8.49% | % inhibition Apo pol 5' (DRC-2, 5', concentration 10): 20% | % inhibition Apo pol 5' (DRC-2, 5', concentration 20): 31% | % inhibition Apo pol 5' (DRC-2, 5', concentration 40): 44% | % inhibition Apo pol 5' (DRC-2, 5', concentration 80): 52% | % inhibition Apol 40' (DRC-2, 40', concentration 2.5): 3% | % inhibition Apol 40' (DRC-2, 40', concentration 5): 5% | % inhibition Apol 40' (DRC-2, 40', concentration 10): 12% | % inhibition Apol 40' (DRC-2, 40', concentration 20): 24% | % inhibition Apol 40' (DRC-2, 40', concentration 40): 41% | % inhibition Apol 40' (DRC-2, 40', concentration 80): 57% | % inhibition ApPOL 90' (DRC-2, 90', concentration 2.5): 1.27% | % inhibition ApPOL 90' (DRC-2, 90', concentration 5): 0% | % inhibition ApPOL 90' (DRC-2, 90', concentration 10): 7% | % inhibition ApPOL 90' (DRC-2, 90', concentration 20): 17% | % inhibition ApPOL 90' (DRC-2, 90', concentration 40): 36% | % inhibition ApPOL 90' (DRC-2, 90', concentration 80): 54% | % inhibition apPOL 180' (DRC-2, 180', concentration 2.5): -2.49% | % inhibition apPOL 180' (DRC-2, 180', concentration 5): -7% | % inhibition apPOL 180' (DRC-2, 180', concentration 10): -2% | % inhibition apPOL 180' (DRC-2, 180', concentration 20): 2.7% | % inhibition apPOL 180' (DRC-2, 180', concentration 40): 21% | % inhibition apPOL 180' (DRC-2, 180', concentration 80): 45% | % inhibition Apo pol 5' (DRC-2; 5'; concentration 2.5): 3% | % inhibition Apol 40' (DRC-2; 40'; concentration 2.5): 3% | DNA Pol (primary screen value, 'DNA Pol' only; 90 min, 10 µM): 69

COc1cccc(C(=O)N2CCc3c(nc4cc(-c5ccccc5)[nH]n4c3=O)C2)c1OC [Molecule 22]
IC50 [4]: 7.31 µM

COc1cc(/C=C2\S/C(=N/C(C)=O)NC2=O)cc(Br)c1OCC(=O)O [KU0057841]
DNA Pol [1]: 27 | % inhibition Apo pol 10' (DRC-1; 10'; concentration 2.5): 4.866% | % inhibition Apo pol 10' (DRC-1; 10'; concentration 5): 4.738% | % inhibition Apo pol 10' (DRC-1; 10'; concentration 10): 17.12% | % inhibition Apo pol 10' (DRC-1; 10'; concentration 20): 35.9073% | % inhibition Apo pol 10' (DRC-1; 10'; concentration 40): 63.4189% | % inhibition Apo pol 10' (DRC-1; 10'; concentration 80): 83.5237% | % inhibition Apol 90' (DRC-1; 90'; concentration 2.5): 3.601% | % inhibition Apol 90' (DRC-1; 90'; concentration 5): -2.326% | % inhibition Apol 90' (DRC-1; 90'; concentration 10): 5.395% | % inhibition Apol 90' (DRC-1; 90'; concentration 20): 16.7076% | % inhibition Apol 90' (DRC-1; 90'; concentration 40): 36.5505% | % inhibition Apol 90' (DRC-1; 90'; concentration 80): 62.7524% | % inhibition apPOL 180' (DRC-1; 180'; concentration 2.5): 1.284% | % inhibition apPOL 180' (DRC-1; 180'; concentration 5): -7.5244% | % inhibition apPOL 180' (DRC-1; 180'; concentration 10): -2.004% | % inhibition apPOL 180' (DRC-1; 180'; concentration 20): 5.338% | % inhibition apPOL 180' (DRC-1; 180'; concentration 40): 19.6206% | % inhibition apPOL 180' (DRC-1; 180'; concentration 80): 44.2464% | % inhibition Apo pol 5' (DRC-2, 5', concentration 2.5): 2.71% | % inhibition Apo pol 5' (DRC-2, 5', concentration 5): 4.4% | % inhibition Apo pol 5' (DRC-2, 5', concentration 10): 17% | % inhibition Apo pol 5' (DRC-2, 5', concentration 20): 29% | % inhibition Apo pol 5' (DRC-2, 5', concentration 40): 52% | % inhibition Apo pol 5' (DRC-2, 5', concentration 80): 60% | % inhibition Apol 40' (DRC-2, 40', concentration 2.5): 1.51% | % inhibition Apol 40' (DRC-2, 40', concentration 5): 3.29% | % inhibition Apol 40' (DRC-2, 40', concentration 10): 13% | % inhibition Apol 40' (DRC-2, 40', concentration 20): 24% | % inhibition Apol 40' (DRC-2, 40', concentration 40): 47% | % inhibition Apol 40' (DRC-2, 40', concentration 80): 64% | % inhibition ApPOL 90' (DRC-2, 90', concentration 2.5): 1.23% | % inhibition ApPOL 90' (DRC-2, 90', concentration 5): 2.28% | % inhibition ApPOL 90' (DRC-2, 90', concentration 10): 9.51% | % inhibition ApPOL 90' (DRC-2, 90', concentration 20): 20% | % inhibition ApPOL 90' (DRC-2, 90', concentration 40): 41% | % inhibition ApPOL 90' (DRC-2, 90', concentration 80): 60% | % inhibition apPOL 180' (DRC-2, 180', concentration 2.5): 1.62% | % inhibition apPOL 180' (DRC-2, 180', concentration 5): -1.41% | % inhibition apPOL 180' (DRC-2, 180', concentration 10): 4% | % inhibition apPOL 180' (DRC-2, 180', concentration 20): 14% | % inhibition apPOL 180' (DRC-2, 180', concentration 40): 28% | % inhibition apPOL 180' (DRC-2, 180', concentration 80): 49% | % inhibition Apo pol 5' [2]: 60% | % inhibition ApPOL 90' (conc 80 (unit not given); 90'; DRC-2): 60% | DNA Pol [3]: 27

O=C(Nc1cccc(C(=O)Nc2ccc(S(=O)(=O)O)c3cc(S(=O)(=O)O)cc(S(=O)(=O)O)c23)c1)Nc1cccc(C(=O)Nc2ccc(S(=O)(=O)O)c3cc(S(=O)(=O)O)cc(S(=O)(=O)O)c23)c1 [Molecule 39]
IC50 [4]: 6.77 µM
